Key:
[1] = Apparent permeability from apical to basolateral side in human Caco-2 cells at 10 uM after 3 hrs; assay type: ADME, cell-based
[2] = Oral bioavailability in cynomolgus monkey at 1 mg/kg, po; assay type: ADME, organism-based, Macaca fascicularis; conditions: in vivo
[3] = Clearance in cynomolgus monkey at 1 […]; assay type: ADME, organism-based, Macaca fascicularis; parameters: dose 1 mg/kg; conditions: in vivo
[4] = Clearance in cynomolgus monkey at 1 mg/kg, iv; assay type: ADME, organism-based, Macaca fascicularis; parameters: dose 1 mg/kg, route intravenous; conditions: in vivo
Cynomolgus monkey [5] = conditions: in vivo, po, 1 mg/kg
Cynomolgus monkey [6] = conditions: in vivo, iv, 1 mg/kg
in vitro [7] = conditions: human, Huh7/C24 cells
Description: Cytotoxicity against human Huh7/C24 cells after 72 hrs by bDNA assay

in vitro [8] = conditions: human, liver microsomes
in vitro [9] = conditions: cynomolgus monkey, liver microsomes
Hepatitis C virus = experiment: microbe, parasite or virus in culture; conditions: genotype 1b, Huh-7, 72 h
in vitro [10] = conditions: human, liver microsomes; remark: listed apart in the source
in vitro [11] = conditions: human, liver microsomes; remark: listed apart in the source

| SMILES | CC50 at 72 h (in vitro [7]) [µM] | half-life at 5 µM (in vitro [8]) [min] | EC50 (Hepatitis C virus) [µM] | further results |
| --- | --- | --- | --- | --- |
| CS(=O)(=O)Nc1ccc2c(c1)S(=O)(=O)N=C(C1=C(O)[C@@H]3CCC[C@@H]3N(Cc3ccc(F)cc3)C1=O)N2 | > 100 | > 60 | 0.016 | Papp A→B at 3 h, 10 µM [1]: 1.6 ×10⁻⁶ cm/s; bioavailability [2]: 21%; CL/F [3]: 0.63 mL/min/kg; clearance [4]: 0.63 mL/min/kg; AUC (Cynomolgus monkey [5]): 6040 ng·h/mL; AUC (Cynomolgus monkey [6]): 29100 ng·h/mL; half-life at 5 µM (in vitro [9]): > 60 min |
| C[C@@]1(CCC2CC2)CN(C2CCC2)C(=O)C(C2=NS(=O)(=O)c3cc(NS(C)(=O)=O)ccc3N2)=C1O | > 1 | – | 0.15 | half-life at 5 µM (in vitro [10]): > 60 min; half-life at 5 µM (in vitro [11]): 5.1 min |
| CC(C)C[C@@H]1CC(O)=C(C2=NS(=O)(=O)c3cc(NS(C)(=O)=O)ccc3N2)C(=O)N1Cc1ccc(F)cc1 | – | > 60 | 2.9 | – |
| CC(C)CC[C@]1(C)CN(C2CC2)C(=O)C(C2=NS(=O)(=O)c3cc(NS(C)(=O)=O)ccc3N2)=C1O | > 33 | 5.5 | 0.097 | – |
| CC[C@@H]1CC(O)=C(C2=NS(=O)(=O)c3cc(NS(C)(=O)=O)ccc3N2)C(=O)N1Cc1ccc(F)cc1 | – | > 60 | 0.97 | – |
| CC(C)CC[C@]1(C)CN(C2CCCC2)C(=O)C(C2=NS(=O)(=O)c3cc(NS(C)(=O)=O)ccc3N2)=C1O | > 33 | > 2.6 | – | – |
| CC(C)CC[C@]1(C)CN(C2CCCCC2)C(=O)C(C2=NS(=O)(=O)c3cc(NS(C)(=O)=O)ccc3N2)=C1O | > 33 | > 3.6 | 0.025 | – |
| CC(C)(C)CC[C@]1(C)CN(C2CCCCC2)C(=O)C(C2=NS(=O)(=O)c3cc(NS(C)(=O)=O)ccc3N2)=C1O | > 10 | – | 1.4 | half-life at 5 µM (in vitro [10]): > 60 min; half-life at 5 µM (in vitro [11]): 1.4 min |
| CC(C)=CC[C@H]1CN(Cc2ccc(F)cc2)C(=O)C(C2=NS(=O)(=O)c3cc(NS(C)(=O)=O)ccc3N2)=C1O | > 33 | 6.9 | 0.67 | – |
| CC(C)CC[C@H]1CN(Cc2ccc(F)cc2)C(=O)C(C2=NS(=O)(=O)c3cc(NS(C)(=O)=O)ccc3N2)=C1O | > 33 | 6.5 | 0.49 | – |
| CC(C)CC[C@@]1(C)CN(Cc2ccc(F)cc2)C(=O)C(C2=NS(=O)(=O)c3cc(NS(C)(=O)=O)ccc3N2)=C1O | > 33 | 5.7 | 0.77 | – |
| CC(C)(C)CC[C@]1(C)CN(C2CCC2)C(=O)C(C2=NS(=O)(=O)c3cc(NS(C)(=O)=O)ccc3N2)=C1O | > 1 | – | 0.46 | half-life at 5 µM (in vitro [10]): > 60 min; half-life at 5 µM (in vitro [11]): 3 min |
| CS(=O)(=O)Nc1ccc2c(c1)S(=O)(=O)N=C(C1=C(O)C3(CCCC3)CN(Cc3ccc(F)cc3)C1=O)N2 | > 33 | 28 | 2.1 | – |
| CS(=O)(=O)Nc1ccc2c(c1)S(=O)(=O)N=C(C1=C(O)C[C@@H](c3ccc(F)cc3)N(Cc3ccc(F)cc3)C1=O)N2 | > 10 | > 60 | 0.52 | – |
| CC[C@H]1CC(O)=C(C2=Nc3ccc(NS(C)(=O)=O)cc3S(=O)(=O)N2)C(=O)N1Cc1ccc(F)cc1 | > 1 | > 60 | 0.083 | – |
| CC(C)CC[C@]1(C)CN(C2CCC2)C(=O)C(C2=NS(=O)(=O)c3cc(NS(C)(=O)=O)ccc3N2)=C1O | > 10 | 2.2 | 0.014 | Papp A→B at 3 h, 10 µM [1]: 2.9 ×10⁻⁶ cm/s; bioavailability [2]: 16%; CL/F [3]: 4.7 mL/min/kg; clearance [4]: 4.7 mL/min/kg; AUC (Cynomolgus monkey [5]): 556 ng·h/mL; AUC (Cynomolgus monkey [6]): 3560 ng·h/mL; half-life at 5 µM (in vitro [9]): 55 min |
| CC(C)/C=C/C[C@@H]1CN(C2CCCC2)C(O)C(C2=NS(=O)(=O)c3cc(NS(C)(=O)=O)ccc3N2)=C1O (stereo not given in full) | > 33 | 35 | 0.24 | – |
| CS(=O)(=O)Nc1ccc2c(c1)S(=O)(=O)N=C(C1=C(O)CC3(CCCC3)N(Cc3ccc(F)cc3)C1=O)N2 | > 33 | > 60 | 0.84 | – |
| CC(C)CC[C@@H]1CC(O)=C(C2=NS(=O)(=O)c3cc(NS(C)(=O)=O)ccc3N2)C(=O)N1Cc1ccc(F)cc1 | – | 7.6 | 5.5 | – |
| CC(C)CC[C@@H]1CN(C2CCCC2)C(=O)C(C2=NS(=O)(=O)c3cc(NS(C)(=O)=O)ccc3N2)=C1O | > 33 | 32 | 0.043 | – |
| C[C@@]1(Cc2ccc(F)cc2)CN(C2CC2)C(=O)C(C2=NS(=O)(=O)c3cc(NS(C)(=O)=O)ccc3N2)=C1O | > 33 | – | 2.1 | – |

| SMILES | CC50 at 72 h (in vitro [7]) [µM] | half-life at 5 µM (in vitro [8]) [min] | EC50 (Hepatitis C virus) [µM] | further results |
| --- | --- | --- | --- | --- |
| CC1(C)CN(Cc2ccc(F)cc2)C(=O)C(C2=NS(=O)(=O)c3cc(NS(C)(=O)=O)ccc3N2)=C1O | > 33 | > 60 | 1.3 | – |
| C[C@@]1(CCC2CC2)CN(C2CCCC2)C(=O)C(C2=NS(=O)(=O)c3cc(NS(C)(=O)=O)ccc3N2)=C1O | > 10 | – | 0.17 | half-life at 5 µM (in vitro [10]): > 60 min; half-life at 5 µM (in vitro [11]): 3.7 min |
| CCC[C@]1(C)CN(C2CCC2)C(=O)C(C2=NS(=O)(=O)c3cc(NS(C)(=O)=O)ccc3N2)=C1O | – | – | 8.5 | half-life at 5 µM (in vitro [10]): > 60 min; half-life at 5 µM (in vitro [11]): 2.8 min |
| CC[C@@]1(C)CN(Cc2ccc(F)cc2)C(=O)C(C2=NS(=O)(=O)c3cc(NS(C)(=O)=O)ccc3N2)=C1O | > 1 | > 60 | 0.16 | – |
| CC[C@@]1(CCC(C)C)CN(C2CCCC2)C(=O)C(C2=NS(=O)(=O)c3cc(NS(C)(=O)=O)ccc3N2)=C1O | > 1 | – | 0.3 | half-life at 5 µM (in vitro [10]): > 60 min; half-life at 5 µM (in vitro [11]): 3 min |
| CC(C)CC[C@]1(C)CN(c2ccccc2)C(=O)C(C2=NS(=O)(=O)c3cc(NS(C)(=O)=O)ccc3N2)=C1O | – | > 2.3 | – | – |
| CS(=O)(=O)Nc1ccc2c(c1)S(=O)(=O)N=C(C1=C(O)C3(CC3)CN(Cc3ccc(F)cc3)C1=O)N2 | > 1 | > 60 | 0.55 | – |
| CS(=O)(=O)Nc1ccc2c(c1)S(=O)(=O)N=C(C1=C(O)C3(CCC3)CN(Cc3ccc(F)cc3)C1=O)N2 | > 33 | > 60 | 0.77 | – |
| CC(C)(C)[C@H]1CC(O)=C(C2=NS(=O)(=O)c3cc(NS(C)(=O)=O)ccc3N2)C(=O)N1Cc1ccc(F)cc1 | > 10 | > 60 | 0.81 | – |
| CCCC[C@]1(C)CN(C2CCC2)C(=O)C(C2=NS(=O)(=O)c3cc(NS(C)(=O)=O)ccc3N2)=C1O | – | – | > 10 | half-life at 5 µM (in vitro [10]): > 60 min; half-life at 5 µM (in vitro [11]): 3 min |
| CS(=O)(=O)Nc1ccc2c(c1)S(=O)(=O)N=C(C1=C(O)[C@@H](Cc3ccc(F)cc3)CN(Cc3ccc(F)cc3)C1=O)N2 | > 33 | > 60 | 3.6 | – |
| CC(C)[C@H]1CC(O)=C(C2=NS(=O)(=O)c3cc(NS(C)(=O)=O)ccc3N2)C(=O)N1Cc1ccc(F)cc1 | > 1 | > 60 | 0.045 | – |
| C[C@@]1(Cc2ccc(F)cc2)CN(C2CCCC2)C(=O)C(C2=NS(=O)(=O)c3cc(NS(C)(=O)=O)ccc3N2)=C1O | > 33 | – | 14 | – |
| C#CC[C@]1(C)CN(C2CCCC2)C(=O)C(C2=NS(=O)(=O)c3cc(NS(C)(=O)=O)ccc3N2)=C1O | > 33 | 43 | 2.9 | – |
| CC(C)(C)CC[C@]1(C)CN(C2CCCC2)C(=O)C(C2=NS(=O)(=O)c3cc(NS(C)(=O)=O)ccc3N2)=C1O | > 10 | – | 0.31 | half-life at 5 µM (in vitro [10]): > 60 min; half-life at 5 µM (in vitro [11]): 1.6 min |
| C[C@]1(CC2CC2)CN(Cc2ccc(F)cc2)C(=O)C(C2=NS(=O)(=O)c3cc(NS(C)(=O)=O)ccc3N2)=C1O | > 33 | > 60 | 0.2 | – |
| CCC(CC)[C@@H]1CC(O)=C(C2=NS(=O)(=O)c3cc(NS(C)(=O)=O)ccc3N2)C(=O)N1Cc1ccc(F)cc1 | > 1 | 59 | 0.31 | – |
| CC(C)(C)CC[C@]1(C)CN(C2CC2)C(=O)C(C2=NS(=O)(=O)c3cc(NS(C)(=O)=O)ccc3N2)=C1O | > 10 | 10 | 0.33 | – |
| CS(=O)(=O)Nc1ccc2c(c1)S(=O)(=O)N=C(C1=C(O)C[C@H](c3ccccc3)N(Cc3ccc(F)cc3)C1=O)N2 | > 10 | > 60 | 0.66 | – |
| CS(=O)(=O)Nc1ccc2c(c1)S(=O)(=O)N=C(C1=C(O)CCN(Cc3ccc(F)cc3)C1=O)N2 | > 33 | > 60 | 3.9 | – |

Source: ChEMBL document CHEMBL1156075, “5,5'- and 6,6'-dialkyl-5,6-dihydro-1H-pyridin-2-ones as potent inhibitors of HCV NS5B polymerase” (Bioorg Med Chem Lett, 2009)
